Entries after “also recorded” stand apart in the source; their conditions may differ. Like-named read-outs stand apart in the source and are kept apart here. Each block holds one compound with its values, some of them ahead of it.
Tests used:
rat brain A1 receptors = target: T1, rat brain A1 receptors (Rattus norvegicus, UniProt P25099); test: Displacement of [125I]APNEA binding in rat brain membranes; settings: read-out: IC50 vs. displacement of specific binding of [125I]APNEA, Ki (A1) column of Table 2, footnote f
T1 construct: in rat brain membranes; from tissue; host or cells: rat brain membranes
T1 sequence (P25099 1-326): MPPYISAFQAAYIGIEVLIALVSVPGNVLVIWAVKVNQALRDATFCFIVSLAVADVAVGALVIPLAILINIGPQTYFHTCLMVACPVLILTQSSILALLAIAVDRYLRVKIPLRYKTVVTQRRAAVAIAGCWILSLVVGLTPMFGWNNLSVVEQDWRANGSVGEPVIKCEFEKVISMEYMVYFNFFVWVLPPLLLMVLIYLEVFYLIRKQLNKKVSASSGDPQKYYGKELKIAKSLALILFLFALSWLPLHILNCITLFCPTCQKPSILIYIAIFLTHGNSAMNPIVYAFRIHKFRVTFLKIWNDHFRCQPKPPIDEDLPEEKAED

[1] = target: T2, adenosine uptake sites in rat brain membranes (Rattus norvegicus, UniProt O54698); set-up: Rat striatal membranes, prepared as above; from tissue; host or cells: rat striatal membranes; settings: read-out: Kd value used for [3H]NBTI Ki calculation; cited from earlier work
T2 sequence (O54698 1-457): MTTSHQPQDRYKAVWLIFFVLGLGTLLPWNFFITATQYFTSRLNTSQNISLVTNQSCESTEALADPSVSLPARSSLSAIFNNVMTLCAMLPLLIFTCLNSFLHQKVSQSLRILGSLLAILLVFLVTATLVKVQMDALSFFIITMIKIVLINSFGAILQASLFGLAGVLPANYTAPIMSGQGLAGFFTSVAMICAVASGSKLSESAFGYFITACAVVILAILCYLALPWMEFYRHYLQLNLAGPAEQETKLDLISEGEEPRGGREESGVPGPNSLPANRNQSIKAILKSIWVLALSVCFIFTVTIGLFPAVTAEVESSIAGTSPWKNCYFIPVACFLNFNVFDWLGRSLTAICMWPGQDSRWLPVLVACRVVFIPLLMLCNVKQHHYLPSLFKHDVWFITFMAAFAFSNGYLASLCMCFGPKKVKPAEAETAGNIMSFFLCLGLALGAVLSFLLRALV

[2] = test system: locomotor activity in mice; test: Locomotor activity in mice (open field, Digiscan activity monitor); type: in vivo, mouse (NIH Swiss)
[3] = test system: forebrain ischemia in gerbils; test: Forebrain ischemia in gerbils (bilateral carotid occlusion); type: in vivo, Mongolian gerbil
Procedure: Ischemia was effected by bilateral occlusion of the carotid arteries. Control gerbils were injected with saline (0.15 ml, i.p. for 10 days). During postischemic recovery, the rate of cerebral blood flow return to pre-ischemia level, neurological status, and survival were monitored. After 7 days, all surviving animals were perfused with formaldehyde for further studies of morphology and histochemistry.

[4] = test system: cardiovascular parameters in rats; type: in vivo, rat
[5] = test system: injection-induced anxiety in mice; test: Anxiolytic effect in C57BL/J mice (responses to handling); type: in vivo, mouse (C57BL/J); settings: chronic, 100 μg/kg
[6] = test system: NMDA-evoked seizures in mice; type: in vivo
[7] = test system: pentamethylenetetrazole-induced convulsions in mice; type: in vivo
[8] = test system: electroconvulsive shock in mice; type: in vivo
[9] = test system: spontaneous seizures in gerbils; test: Spontaneous seizures in gerbils on immersion in water maze; type: in vivo, gerbil
Procedure: During the studies of behavioural responses of gerbils to adenosine receptor stimulation, animals were exposed to the water maze model of spatial learning and memory. The control group (n=15) was injected with the vehicle given i.p. for 6 weeks prior to water maze tests. Twenty-four hours after the last injection, animals were exposed to the swim task. Immersion of animals in the swim tank whose water was kept at 32° C. produced an immediate, long-lasting (up to 2 min) seizure complex that was presented as myoclonic convulsions, followed by a period of rigidity and hind-limb extension.

[10] = test system: spatial memory in gerbils; test: Learning and memory in gerbils (Morris water maze) and open field; type: in vivo, gerbil; settings: chronic
[11] = Basal or systemic blood pressure (chronic use, malignant hypotension); type: in vivo
phospholipase C = settings: acute administration; 'it is known'; cited from earlier work
[12] = Rectal temperature of mice under light halothane anesthesia; settings: 100 μg/kg acute (15 min) or chronic (24 h after last injection)
[13] = target: T2, adenosine uptake sites in rat brain membranes; test: Competition for [3H]NBTI binding at adenosine uptake sites in rat striatal membranes; settings: read-out: Ki (NBTI); 0.3 nM [3H]NBTI, 30 min at 23° C., pH 7.4
[14] = acute, 15 min prior to 10 min ischemia
[15] = chronic 10 days, 10 min ischemia
[16] = acute IB-MECA 10 μg/kg + NMDA 60 mg/kg, NS
[17] = acute IB-MECA 50 μg/kg + NMDA 60 mg/kg, NS
[18] = acute IB-MECA 100 μg/kg + NMDA 60 mg/kg
[19] = acute IB-MECA 100 μg/kg + NMDA 60 mg/kg, P<0.05
[20] = chronic IB-MECA 100 μg/kg + NMDA 60 mg/kg, P<0.05
[21] = acute IB-MECA 100 μg/kg + PMT 75 mg/kg
[22] = acute IB-MECA 100 μg/kg + PMT 75 mg/kg, P<0.05
[23] = chronic IB-MECA 100 μg/kg + PMT 75 mg/kg
[24] = chronic IB-MECA 100 μg/kg + PMT 75 mg/kg, P<0.05

IC50 (rat brain A1 receptors): 2.1 nM
Structure (SMILES): Nc1ccc(CCNc2ncnc3c2ncn3[C@@H]2O[C@H](CO)[C@@H](O)[C@H]2O)cc1I [[^125 I]APNEA, [^125 I]N^6-2-(4-aminophenyl)ethyladenosine]

Structure (SMILES): O=[N+]([O-])c1ccc(CSc2ncnc3c2ncn3[C@@H]2O[C@H](CO)[C@@H](O)[C@H]2O)cc1 [[^3 H]NBTI]
Kd [1]: 0.15 nM

Structure (SMILES): CNC(=O)[C@H]1O[C@@H](n2cnc3c(NCc4cccc(I)c4)ncnc32)[C@H](O)[C@@H]1O [Compound 42, N^6-(3-iodobenzyl)adenosine-5'-N-methyluronamide]
reduction in locomotor activity at chosen dose ([2]; APEC 16 μg/kg, 3-IB-MECA 100 μg/kg i.p.): ca. 50%
minimal effective dose ([2]; Mus musculus, ip, read-out: threshold dose for locomotor depression): 0.01 mg/kg
dose of maximal locomotor depression ([2]; i.p.): about 0.1 mg/kg
scratching behavior (in words) ([2]; i.p.): rapid scratching behavior
locomotor measures (in words) ([2]; i.p., listed as 3-IB-MECA): Vertical activity, stereotype counts, and rotational movement were depressed in a dose-dependent manner; also recorded: average distance per move and average speed were not changed significantly
plateau of locomotor depression below control level ([2]; total distance traveled, higher doses): ca. 60%
postischemic effect (in words) ([3]; acute (15 min) or chronic (10 days), 100 μg/kg, listed as IB-MECA): impairment of postischemic cortical blood flow rate, increased mortality rate, and extensive neuronal destruction in the hippocampus; also recorded: improved post-ischemic blood reflow, increased survival
surviving hippocampal neurons ([3]; acute (15 min), 10 min ischemia, 100 μg/kg): about 30%
survival for 7 days ([3]; acute, 100 μg/kg i.p. 15 min prior to 10 min ischemia): Ten percent
animals with irreversible coma ([3]; acute, 10 min ischemia): 40%
animals with seizures ([3]; acute, 10 min ischemia): 60%
mortality within 12 hr post-ischemia [3, 14]: 90%
time to full recovery of post-ischemic blood flow [3, 14]: over 3.5 hr
end-point mortality ([3]; acute, repeated experiment, FIG. 6, p<0.01): 90%
neurological side effects without ischemia (in words) ([3]; acutely and chronically treated): No neurological side effects were observed
animals with mild hyperactivity [3, 15]: 40%
survival for 7 days (in words) [3, 15]: All those gerbils
time to full recovery of post-ischemic blood flow [3, 15]: about 90 min
survival for 7 days ([3]; chronic 10 days, 20 min ischemia): 90%
surviving hippocampal neurons ([3]; chronic (10 days), 10 min ischemia, 100 μg/kg): > 80%
survival ([3]; chronic, repeated experiment, FIG. 6, p<0.01): 90%
duration of hypotensive effect ([4]; 0.1 mg/kg): 90 min
blood flow and respiratory rates (in words) ([4]; 0.1 mg/kg i.p.): not significant
blood pressure (in words) ([4]; 0.1 mg/kg i.p.): lowering of the blood pressure
heart rate (in words) ([4]; 0.1 mg/kg i.p.): little effect on heart rate
drop in body temperature ([4]; 0.1 mg/kg i.p., after about 30 min post-injection): approximately 0.5 °C
onset of hypotensive effect ([4]; 0.1 mg/kg, post-injection): ≤ 2 min
injection-induced anxiety or stress responses (in words) [5]: almost no injection-induced anxiety or stress behavioral responses
incidence of seizures or degree of neurological impairment (in words) ([6]; acute IB-MECA 10 μg/kg + NMDA 60 mg/kg): no effect on either the incidence of seizures, or the degree of neurological impairment
% Convulsing [6, 16]: 50%
% Mortality at 24 h [6, 16]: 50%
Impairment (scale 1-6) [6, 16]: 2.7 + 0.6
Ave. Latency to Seizures ([6]; acute IB-MECA 10 μg/kg + NMDA 60 mg/kg, P<0.05): 581 + 107 sec
% Mortality at 24 h [6, 17]: 27%
Impairment (scale 1-6) [6, 17]: 2.0 + 0.5
% Convulsing ([6]; acute IB-MECA 50 μg/kg + NMDA 60 mg/kg, P<0.05): 10%
Ave. Latency to Seizures ([6]; acute IB-MECA 50 μg/kg + NMDA 60 mg/kg, only one animal): 12 s
% Convulsing [6, 18]: 0%
clinically manifested seizures (in words) [6, 18]: completely absent
duration of lethargic behaviour [6, 18]: 45 to 60 min
% Mortality at 24 h [6, 19]: 10%
Impairment (scale 1-6) [6, 19]: 1.4 + 0.4
animals with tonic seizures ([6]; chronic IB-MECA 100 μg/kg + NMDA 60 mg/kg): 20%
% Convulsing [6, 20]: 30%
Ave. Latency to Seizures [6, 20]: 689 + 108 sec
Impairment (scale 1-6) [6, 20]: 1.8 + 0.4
onset of seizures and overall mortality after PMT (in words) ([7]; acute IB-MECA): significantly reduced
Impairment [7, 21]: 4.1 + 0.5
Mortality 0.4-5 h [7, 21]: 0%
Mortality <15 min [7, 21]: 40%
Mortality >5 h [7, 21]: 10%
Mortality Overall [7, 22]: 50%
Onset of convulsive behavior [7, 22]: 112 s
Mortality 0.4-5 h [7, 23]: 10%
Mortality <15 min [7, 23]: 40%
Mortality >5 h [7, 23]: 0%
Onset of convulsive behavior [7, 23]: 120 s
Impairment [7, 24]: 3.3 + 0.5
Mortality Overall [7, 24]: 50%
onset of seizures or neurological impairment after PMT (in words) ([7]; chronic IB-MECA + PMT 75 mg/kg): no significant effect on either the onset of seizures or neurological impairment
electroshock threshold voltage (in words) ([8]; acute IB-MECA): insignificant increase of threshold voltage
% Mortality at 24 h ([8]; acute IB-MECA 100 μg/kg + E.S.): 70%
Threshold voltage ([8]; acute IB-MECA 100 μg/kg + E.S.): 106 + 10
electroshock threshold voltage / postictal mortality (in words) ([8]; chronic IB-MECA): no significant changes in threshold voltage; also recorded: postictal mortality was significantly reduced
Threshold voltage ([8]; chronic IB-MECA 100 μg/kg + E.S.): 118 + 13
% Mortality at 24 h ([8]; chronic IB-MECA 100 μg/kg + E.S., p<0.05): 30%
seizing activity (in words) ([9]; acute): worsen the seizing activity
seizing activity during swim task (in words) ([9]; chronic, 100 μg/kg i.p. daily for 6 wks): entirely eliminated seizing activity
locomotor behavior in open field (in words) [10]: did not show any significant differences in locomotor behavior
average time to target ([10]; 100 μg/kg daily for 2 months, p<0.04 vs controls 40 sec): 30 s
basal or systemic blood pressure after administration ([11]; from about 70 mm Hg): about 90 mm Hg
increase in basal or systemic blood pressure ([11]; in vivo): 10-30%
stimulation of phospholipase C and inositol 1,4,5-triphosphate production (in words) (phospholipase C): stimulation of phospholipase C and an enhanced production of inositol 1,4,5-triphosphate
rectal temperature (in words) [12]: no significant temperature differences
Ki [13]: 28.2 µM

From US5773423A (priority 1994, dated 1998)
